Data on 16 compounds can be found in ChEMBL document CHEMBL1201862, “PubChem BioAssay data set” (2004).

Activity calls are given as the source filed them. Bounds are passed on as bounds.

Experiment [1] has as its target Acyl-homoserine lactone acylase PvdQ (Pseudomonas aeruginosa (strain LESB58), UniProt Q9I194). Kind of experiment: PvdQ acylase enzyme activity blockers – biochemical, fluorescence, plate reader and imaging, cherry-picks, dose response (AID 493231).
Experiment [2] has as its target Neurotensin receptor type 1 (Homo sapiens, UniProt P30989). The class given is functional.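 Further: Image-based confirmatory dose-response assay measuring agonist activity at NTR1; NTR1-expressing U2OS osteosarcoma cells imaged for beta-arrestin GFP spot formation; agonist potency where compounds increase beta-arrestin recruitment.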
Experiment [3] has as its target T1, Bcl-2-like protein 10 (Homo sapiens, UniProt Q9HD36).
T1 sequence (Q9HD36 whole entry): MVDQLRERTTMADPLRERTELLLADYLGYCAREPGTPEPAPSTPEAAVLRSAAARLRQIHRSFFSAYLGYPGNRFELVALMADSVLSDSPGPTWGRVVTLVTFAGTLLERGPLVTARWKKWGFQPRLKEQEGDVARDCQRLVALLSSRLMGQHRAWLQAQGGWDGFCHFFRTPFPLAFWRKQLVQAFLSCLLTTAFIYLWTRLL
Kind of experiment: Bcl-B/TR3 peptide binding disruption – biochemical, fluorescence polarization, FITC-TR3 peptide, selectivity assay for Bfl-1 inhibitor project, primary screen (AID 748).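 Further: fluorescence polarization from a fluorescein-labelled TR3 peptide binding purified Bcl-B.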

Experiment [4] concerns the target Cyclin-dependent kinase 5/CDK5 activator 1 (Homo sapiens, UniProt Q00535). The experiment can be described thus: blockade of human CDK5 activity – biochemical, cherry-picked samples, set 2, dose response (AID 504545).
Experiment [5] deals with T2, Leucine aminopeptidase (Plasmodium falciparum 3D7, UniProt Q8IL11).
T2 sequence (Q8IL11 whole entry): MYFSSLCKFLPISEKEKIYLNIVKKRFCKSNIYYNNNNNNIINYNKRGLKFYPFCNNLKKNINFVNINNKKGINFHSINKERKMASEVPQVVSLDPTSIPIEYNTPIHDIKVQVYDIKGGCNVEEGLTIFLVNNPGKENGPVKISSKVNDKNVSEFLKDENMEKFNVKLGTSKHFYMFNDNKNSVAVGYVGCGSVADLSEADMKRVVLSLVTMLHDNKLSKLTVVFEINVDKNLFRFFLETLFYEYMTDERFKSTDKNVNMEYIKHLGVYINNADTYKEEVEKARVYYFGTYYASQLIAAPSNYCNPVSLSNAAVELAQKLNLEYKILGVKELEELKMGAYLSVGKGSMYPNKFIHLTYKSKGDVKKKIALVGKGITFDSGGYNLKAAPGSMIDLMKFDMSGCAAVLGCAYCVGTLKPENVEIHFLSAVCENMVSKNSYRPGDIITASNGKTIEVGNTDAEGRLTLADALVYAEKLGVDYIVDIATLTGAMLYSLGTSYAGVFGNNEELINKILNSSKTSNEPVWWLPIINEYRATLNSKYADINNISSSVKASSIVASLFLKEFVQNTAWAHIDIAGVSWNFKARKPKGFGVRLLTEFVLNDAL
Kind of experiment: P. falciparum M17LAP inhibitors, primary screen, biochemical, fluorogenic H-Leu-NHMec substrate, 1536-well (AID 1619). It is filed as functional.

Experiment [6] has as its target T3, Aspartyl aminopeptidase (Plasmodium falciparum 3D7, UniProt Q8I2J3).
T3 sequence (Q8I2J3 whole entry): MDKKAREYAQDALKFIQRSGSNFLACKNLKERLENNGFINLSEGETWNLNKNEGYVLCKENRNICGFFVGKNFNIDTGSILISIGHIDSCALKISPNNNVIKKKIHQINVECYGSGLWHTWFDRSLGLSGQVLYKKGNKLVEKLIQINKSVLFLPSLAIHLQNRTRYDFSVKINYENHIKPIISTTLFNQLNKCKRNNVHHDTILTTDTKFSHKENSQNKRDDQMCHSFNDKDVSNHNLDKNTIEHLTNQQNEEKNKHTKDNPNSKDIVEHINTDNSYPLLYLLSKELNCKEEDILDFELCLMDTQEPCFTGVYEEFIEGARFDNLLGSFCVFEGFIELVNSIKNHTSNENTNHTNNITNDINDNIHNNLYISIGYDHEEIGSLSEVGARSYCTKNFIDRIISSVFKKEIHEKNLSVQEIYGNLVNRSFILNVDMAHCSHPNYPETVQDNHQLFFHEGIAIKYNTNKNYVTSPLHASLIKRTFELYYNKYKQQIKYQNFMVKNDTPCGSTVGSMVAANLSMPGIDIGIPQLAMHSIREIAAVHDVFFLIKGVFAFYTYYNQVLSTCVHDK

The target of experiment [7] is Procathepsin L (Homo sapiens, UniProt P07711).
The target of experiment [8] is Protein Rev (Human immunodeficiency virus type 1 group M subtype B (isolate HXB2)(HIV-1), UniProt P04618). The experiment can be described thus: blockers of HIV Rev/RRE RNA complex – biochemical, fluorescence polarization, HIV-1, dose response (AID 434976). Set-up: species or system Human immunodeficiency virus 1.
Experiment [9] addresses Female germline-specific tumor suppressor gld-1 (Caenorhabditis elegans, UniProt Q17339). The experiment can be described thus: blockers of GLD-1/TGE RNA complex formation – biochemical, fluorescence polarization, C. elegans, dose response (AID 2802).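 Further: fluorescence polarization of labeled TGE RNA bound by purified gld-1 protein.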
For experiment [10], the target named is T4, Polyadenylate-binding protein 1 (Homo sapiens, UniProt P11940). The experiment can be described thus: MLLE binding blockers, Cy5 peptide tracer – biochemical, fluorescence polarization, Cy5-PAM2 peptide, secondary, miRNA deadenylation inhibitor project, dose response (AID 602260). It is filed as functional. The conditions noted are these: read-out: IC50_Mean.

Experiment [11] has as its target T4, Polyadenylate-binding protein 1. Kind of experiment: MLLE domain peptide-binding blockers, IC50 – biochemical, fluorescence polarization, FITC-PAM2 peptide, dose response (AID 602259). The class given is functional. The conditions noted are these: read-out: IC50_Mean.
Experiment [12] concerns the target T5, DNA repair and recombination protein RAD54-like (Homo sapiens, UniProt Q92698).
T5 sequence (Q92698 whole entry): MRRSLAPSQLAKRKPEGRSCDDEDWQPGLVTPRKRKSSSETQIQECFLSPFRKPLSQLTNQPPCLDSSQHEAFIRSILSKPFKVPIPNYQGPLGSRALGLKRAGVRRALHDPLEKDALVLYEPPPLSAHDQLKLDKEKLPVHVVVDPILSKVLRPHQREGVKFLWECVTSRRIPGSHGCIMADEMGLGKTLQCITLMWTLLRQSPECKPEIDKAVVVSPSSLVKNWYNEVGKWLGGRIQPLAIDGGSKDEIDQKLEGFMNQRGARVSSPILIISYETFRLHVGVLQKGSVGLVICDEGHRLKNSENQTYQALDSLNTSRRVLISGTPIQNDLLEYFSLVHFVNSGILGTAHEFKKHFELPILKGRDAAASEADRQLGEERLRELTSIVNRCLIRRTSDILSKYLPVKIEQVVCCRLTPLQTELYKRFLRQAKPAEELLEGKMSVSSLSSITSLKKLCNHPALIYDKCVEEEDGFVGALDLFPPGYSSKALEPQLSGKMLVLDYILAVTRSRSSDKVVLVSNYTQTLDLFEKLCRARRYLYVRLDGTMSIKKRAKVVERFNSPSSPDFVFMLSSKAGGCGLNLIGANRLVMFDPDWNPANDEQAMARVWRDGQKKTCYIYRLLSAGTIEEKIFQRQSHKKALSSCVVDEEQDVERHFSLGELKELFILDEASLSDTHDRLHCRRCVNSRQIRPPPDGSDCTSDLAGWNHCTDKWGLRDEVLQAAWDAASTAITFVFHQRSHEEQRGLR
The experiment can be described thus: RAD54 Holliday junction migration blockers – biochemical, fluorescence, cherry-picked samples, dose series, confirmation (AID 651657). It is filed as functional.

A short description of experiment [13]: A cytotoxicity screen of small molecule inhibitors of the PhoP region in Salmonella typhi identified in the primary screen. [Related pubchem assays: 1850, 1864, 1985 ]. The class given is functional.
The target in experiment [14] is Cytochrome P450 2C9 (Homo sapiens, UniProt P11712). The conditions noted are these: Potency.
The target of experiment [15] is Eukaryotic translation initiation factor 4H (Homo sapiens, UniProt Q15056). The experiment can be described thus: eIF4H binding inhibition – biochemical, uHTS, fluorescence polarization, translation initiation inhibitor project, primary screen (AID 2012).
In experiment [16] the target is T4, Polyadenylate-binding protein 1. Kind of experiment: blockers of PABP interaction with poly(A) – biochemical, fluorescence polarization, […] (AID 2014).
The target in experiment [17] is DNA dC->dU-editing enzyme APOBEC-3A (Homo sapiens, UniProt P31941). The experiment can be described thus: Dose Response confirmation of small molecule APOBEC3A DNA Deaminase Inhibitors via a fluorescence-based single-stranded DNA deaminase assay. [Related pubchem assays (depositor defined):AID493011, AID493024]. It is filed as functional.
For experiment [18], the target named is DNA dC->dU-editing enzyme APOBEC-3G (Homo sapiens, UniProt Q9HC16). It is filed as functional.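 Further: Dose-response counterscreen measuring inhibition of APOBEC3G DNA deaminase activity, run while confirming APOBEC3A inhibitors.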
Experiment [19] addresses Protein Tat (Human immunodeficiency virus type 1 group M subtype B (isolate HXB2)(HIV-1), UniProt P04608). The class given is functional.
Experiment [20] in a line: viability loss in THP-1 monocytes – THP-1 cells, cytotoxicity control for Vif-APOBEC3G degradation inhibitor project, dose response (AID 1117359). The conditions noted are these: THP-1. It is filed as functional.

T4 sequence (P11940 whole entry): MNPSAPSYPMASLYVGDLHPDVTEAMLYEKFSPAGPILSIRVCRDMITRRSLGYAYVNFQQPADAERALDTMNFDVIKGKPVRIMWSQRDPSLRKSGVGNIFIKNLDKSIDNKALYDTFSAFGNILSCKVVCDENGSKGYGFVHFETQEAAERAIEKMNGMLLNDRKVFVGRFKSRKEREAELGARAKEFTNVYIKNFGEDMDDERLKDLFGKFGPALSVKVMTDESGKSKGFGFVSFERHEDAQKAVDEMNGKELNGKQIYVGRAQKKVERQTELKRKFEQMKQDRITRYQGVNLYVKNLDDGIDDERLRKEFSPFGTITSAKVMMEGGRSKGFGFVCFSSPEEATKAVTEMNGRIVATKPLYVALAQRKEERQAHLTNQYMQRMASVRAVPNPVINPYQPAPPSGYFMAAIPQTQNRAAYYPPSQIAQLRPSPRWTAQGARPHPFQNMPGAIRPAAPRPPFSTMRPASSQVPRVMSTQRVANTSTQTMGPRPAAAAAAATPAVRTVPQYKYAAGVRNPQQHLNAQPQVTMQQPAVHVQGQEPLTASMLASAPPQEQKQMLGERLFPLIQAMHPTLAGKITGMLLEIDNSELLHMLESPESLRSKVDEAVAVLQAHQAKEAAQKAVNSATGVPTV
Chain of Protein Rev (P04618 whole entry): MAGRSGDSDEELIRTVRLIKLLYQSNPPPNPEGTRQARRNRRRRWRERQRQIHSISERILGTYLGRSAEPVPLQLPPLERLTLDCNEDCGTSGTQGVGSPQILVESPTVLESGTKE
Chain of Procathepsin L (P07711 whole entry): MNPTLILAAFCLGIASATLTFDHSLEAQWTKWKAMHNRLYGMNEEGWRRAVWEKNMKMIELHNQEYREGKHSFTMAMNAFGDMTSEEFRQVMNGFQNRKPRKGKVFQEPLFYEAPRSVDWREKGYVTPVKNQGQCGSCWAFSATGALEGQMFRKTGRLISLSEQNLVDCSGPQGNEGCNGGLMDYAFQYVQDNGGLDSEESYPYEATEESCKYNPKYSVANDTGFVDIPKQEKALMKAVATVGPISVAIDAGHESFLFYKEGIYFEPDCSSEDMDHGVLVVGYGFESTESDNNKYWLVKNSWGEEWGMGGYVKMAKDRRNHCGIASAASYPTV
Chain of Cyclin-dependent kinase 5/CDK5 activator 1 (Q00535 whole entry): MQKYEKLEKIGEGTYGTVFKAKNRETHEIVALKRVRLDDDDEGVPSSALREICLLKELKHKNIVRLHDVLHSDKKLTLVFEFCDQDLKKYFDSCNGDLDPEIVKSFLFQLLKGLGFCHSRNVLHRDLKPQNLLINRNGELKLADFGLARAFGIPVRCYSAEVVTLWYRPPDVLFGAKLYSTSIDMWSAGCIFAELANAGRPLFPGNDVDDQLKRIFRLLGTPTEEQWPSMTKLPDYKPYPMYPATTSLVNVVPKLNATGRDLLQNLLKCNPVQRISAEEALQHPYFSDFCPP
Chain of Cyclin-dependent kinase 5/CDK5 activator 1 (Q15078 whole entry, further chain): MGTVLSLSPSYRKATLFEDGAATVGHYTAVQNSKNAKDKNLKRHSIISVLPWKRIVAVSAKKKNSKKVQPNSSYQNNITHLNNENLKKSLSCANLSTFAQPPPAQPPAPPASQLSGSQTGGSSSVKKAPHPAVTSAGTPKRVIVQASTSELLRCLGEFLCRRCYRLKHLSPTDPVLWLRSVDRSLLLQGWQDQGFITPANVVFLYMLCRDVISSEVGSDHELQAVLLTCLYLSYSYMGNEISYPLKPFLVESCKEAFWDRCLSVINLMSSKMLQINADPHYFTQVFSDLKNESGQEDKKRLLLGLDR
Chain of Cytochrome P450 2C9 (P11712 whole entry): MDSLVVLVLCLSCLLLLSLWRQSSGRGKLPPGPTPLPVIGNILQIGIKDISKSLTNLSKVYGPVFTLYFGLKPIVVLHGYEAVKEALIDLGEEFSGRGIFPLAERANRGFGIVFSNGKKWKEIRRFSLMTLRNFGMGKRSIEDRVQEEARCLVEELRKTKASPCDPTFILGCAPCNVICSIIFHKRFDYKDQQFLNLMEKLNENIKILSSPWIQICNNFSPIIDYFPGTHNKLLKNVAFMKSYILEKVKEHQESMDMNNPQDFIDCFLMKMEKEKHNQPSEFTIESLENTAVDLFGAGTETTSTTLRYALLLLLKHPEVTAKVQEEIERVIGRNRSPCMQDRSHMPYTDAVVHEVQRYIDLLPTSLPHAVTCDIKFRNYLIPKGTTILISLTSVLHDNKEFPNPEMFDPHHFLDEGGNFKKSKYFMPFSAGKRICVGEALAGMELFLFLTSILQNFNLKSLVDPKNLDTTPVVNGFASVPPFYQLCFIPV
Chain of Acyl-homoserine lactone acylase PvdQ (Q9I194 24-193 limits assumed): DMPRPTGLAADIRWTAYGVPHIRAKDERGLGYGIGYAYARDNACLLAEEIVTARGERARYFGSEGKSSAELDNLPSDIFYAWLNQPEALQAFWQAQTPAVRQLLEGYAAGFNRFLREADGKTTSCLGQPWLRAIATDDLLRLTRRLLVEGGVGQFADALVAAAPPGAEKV
Chain of Acyl-homoserine lactone acylase PvdQ (Q9I194 217-762 limits assumed): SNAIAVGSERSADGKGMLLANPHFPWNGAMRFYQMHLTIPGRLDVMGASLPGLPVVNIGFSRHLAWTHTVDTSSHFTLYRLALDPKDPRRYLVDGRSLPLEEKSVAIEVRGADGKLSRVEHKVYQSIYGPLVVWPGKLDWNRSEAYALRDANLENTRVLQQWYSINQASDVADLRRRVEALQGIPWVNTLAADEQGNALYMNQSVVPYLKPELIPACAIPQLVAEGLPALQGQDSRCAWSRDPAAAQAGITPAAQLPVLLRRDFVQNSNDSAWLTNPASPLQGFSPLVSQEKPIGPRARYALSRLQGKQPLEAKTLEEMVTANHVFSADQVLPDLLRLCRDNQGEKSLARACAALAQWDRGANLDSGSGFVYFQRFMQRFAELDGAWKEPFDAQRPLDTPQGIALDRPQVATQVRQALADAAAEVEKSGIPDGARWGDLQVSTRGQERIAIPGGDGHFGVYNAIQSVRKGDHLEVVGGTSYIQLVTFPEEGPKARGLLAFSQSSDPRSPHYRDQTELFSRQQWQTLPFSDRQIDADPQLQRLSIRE
Chain of Female germline-specific tumor suppressor gld-1 (Q17339 whole entry): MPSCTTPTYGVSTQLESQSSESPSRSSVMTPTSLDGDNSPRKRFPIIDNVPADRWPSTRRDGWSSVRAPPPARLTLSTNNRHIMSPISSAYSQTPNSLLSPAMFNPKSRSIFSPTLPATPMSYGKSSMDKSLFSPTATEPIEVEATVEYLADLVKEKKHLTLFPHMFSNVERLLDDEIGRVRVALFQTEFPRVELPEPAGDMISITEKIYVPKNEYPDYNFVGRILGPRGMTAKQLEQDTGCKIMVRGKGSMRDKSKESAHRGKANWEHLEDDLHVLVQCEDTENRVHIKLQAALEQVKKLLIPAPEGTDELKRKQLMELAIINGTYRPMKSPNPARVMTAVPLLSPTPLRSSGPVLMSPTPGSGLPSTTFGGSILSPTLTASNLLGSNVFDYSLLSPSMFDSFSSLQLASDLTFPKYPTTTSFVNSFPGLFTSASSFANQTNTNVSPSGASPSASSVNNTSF
Chain of Protein Tat (P04608 whole entry): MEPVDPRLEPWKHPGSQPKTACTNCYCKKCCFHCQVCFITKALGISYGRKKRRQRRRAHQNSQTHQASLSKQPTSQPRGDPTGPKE
Chain of DNA dC->dU-editing enzyme APOBEC-3G (Q9HC16 whole entry): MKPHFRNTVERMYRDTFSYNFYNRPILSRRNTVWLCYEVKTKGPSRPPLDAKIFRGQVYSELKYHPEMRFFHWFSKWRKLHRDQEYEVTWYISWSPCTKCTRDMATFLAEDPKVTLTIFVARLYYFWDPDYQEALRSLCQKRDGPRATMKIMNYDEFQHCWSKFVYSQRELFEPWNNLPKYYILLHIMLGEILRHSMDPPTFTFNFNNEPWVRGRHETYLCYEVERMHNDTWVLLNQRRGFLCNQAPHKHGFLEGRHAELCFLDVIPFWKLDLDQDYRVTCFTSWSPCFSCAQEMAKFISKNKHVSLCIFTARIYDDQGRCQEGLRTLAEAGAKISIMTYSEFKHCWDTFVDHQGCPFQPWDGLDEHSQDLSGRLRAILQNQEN
Chain of Neurotensin receptor type 1 (P30989 whole entry): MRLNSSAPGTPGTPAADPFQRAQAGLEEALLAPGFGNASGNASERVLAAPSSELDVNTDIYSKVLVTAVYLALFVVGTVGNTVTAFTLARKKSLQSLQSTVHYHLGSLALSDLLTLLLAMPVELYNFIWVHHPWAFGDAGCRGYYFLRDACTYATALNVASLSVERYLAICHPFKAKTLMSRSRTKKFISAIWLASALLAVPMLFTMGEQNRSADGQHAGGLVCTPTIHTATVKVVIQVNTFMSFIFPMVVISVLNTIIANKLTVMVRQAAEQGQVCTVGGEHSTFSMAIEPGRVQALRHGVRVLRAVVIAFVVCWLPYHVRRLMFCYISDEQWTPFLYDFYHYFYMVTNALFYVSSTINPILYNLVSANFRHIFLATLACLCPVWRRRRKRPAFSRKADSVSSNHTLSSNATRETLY
Chain of DNA dC->dU-editing enzyme APOBEC-3A (P31941 whole entry): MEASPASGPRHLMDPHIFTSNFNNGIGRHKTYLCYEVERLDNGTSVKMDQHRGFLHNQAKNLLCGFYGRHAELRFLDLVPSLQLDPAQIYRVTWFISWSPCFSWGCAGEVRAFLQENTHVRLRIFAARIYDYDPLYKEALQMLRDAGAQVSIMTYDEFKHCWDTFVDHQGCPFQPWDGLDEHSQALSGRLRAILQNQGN

As to `Cc1cc(C)nc(N(C#N)Cc2ccc(Cl)cc2)n1`, the AC50 in [1] was 21.9 µM (active). Consider `CCCCn1c(SCC(=O)N2CCC(C)CC2)nc2cc(S(N)(=O)=O)ccc21`, for which the EC50 in experiment [2] is 20.7 µM (inactive). Take `COc1ccc(-c2nc3n(n2)C(c2cccnc2)C(C(N)=O)=C(C)N3)cc1` (centres undefined): the IC50 in [3] was > 100 µM (inactive). `COc1cc(C(=O)N2CCN(c3ccccn3)CC2)cc(OC)c1OC`: the AC50 in [4] is 2.75 µM (active). On to `O=C(CSc1nnc[nH]1)OCN1C(=O)c2ccccc2C1=O`, for which the IC50 is 64.4 µM (active) in [5], 0.35 µM (active) in [6] and > 59.6 µM (not active) in experiment [7]. In the case of `Cc1ccc[n+](-c2nc([O-])sc2C=NNc2ccc([N+](=O)[O-])cc2)c1`, the IC50 in [8] was 10.1 µM (not active); in experiment [9] it was 3.96 µM (active); in experiment [10], > 66 µM (inactive); in experiment [11], 33.3 µM (inactive). As for `COc1cc2c(C#N)c(N3CCN(C)CC3)nc(N)c2c(N)n1`, the IC50 in experiment [3] was > 100 µM (inactive). In addition, the half-maximal activity concentration (AC50) in experiment [12] is 28.9 µM (active). `COc1nnc(-c2ccc(N3CCOCC3)c(NC(=O)c3ccc(C)cc3)c2)c2ccccc12`: the EC50 in experiment [13] is > 50 µM (active). As to `Cc1cc(C)nc(N(C#N)Cc2ccccc2)n1`, the AC50 in experiment [1] is 9.18 µM (active).

Consider `NCCC[C@@H](CC(=O)N[C@@H]1CCCC[C@H]1C(=O)N[C@H](CC(=O)N[C@@H](CCC(=O)O)CC(=O)O)Cc1ccccc1)NC(=O)C[C@H](CO)NC(=O)[C@@H]1CCCC[C@H]1N`, for which the AC50 in experiment [14] is 39.8 µM (inconclusive). Consider `Cc1ccc(NC2=NCCCS2)cc1Cl`, for which the 50% effective concentration (EC50) in experiment [13] was > 50 µM (active). On to `CCN1C(NCCOC)=N[C@@H](c2cccc(F)c2)C(C(=O)OC)=C1C`, for which the IC50 is > 100 µM (inactive) in [15], 12.8 µM (active) in experiment [16], 3.86 µM (active) in experiment [17] and 5.2 µM (active) in experiment [18]. Take `CCOC(=O)NC(=O)COC(=O)c1ccc(Sc2nnc[nH]2)c([N+](=O)[O-])c1`: the figures for the IC50 in experiment [6] and in experiment [7] were 0.609 µM (active) and > 59.6 µM (not active), respectively. Turning to `CN1CCN(c2ncc3nc(-c4cccc(C#N)c4)c(=O)n(C[C@H]4CCCO4)c3n2)CC1`, the AC50 in experiment [14] was 25.1 µM (inconclusive). On to `NC(=O)c1cc([N+](=O)[O-])c(Cl)cc1NCc1cccnc1`, for which the AC50 in [4] was 14.3 µM (active).

Turning to `COc1ccc(/C=N/c2c(-c3ccco3)nc3ccccn23)cc1OC`, the IC50 is 56.1 µM (not active) in experiment [8], 3.71 µM (active) in [9] and 8.15 µM (inconclusive) in [19]. Also, the CC50 in [20] is > 40 µM (active).
